# Test results taken from patent US20210355106A1, “NEW AMINO-PYRIMIDONYL-PIPERIDINYL DERIVATIVES, A PROCESS FOR THEIR PREPARATION AND PHARMACEUTICAL COMPOSITIONS CONTAINING THEM” (LES LABORATOIRES SERVIER, priority 2018, published 2021).
# Structures can show the parent of a compound that is named as a salt.
# Biological target: T1, USP7 (Homo sapiens, UniProt Q93009, C315A)
# T1 construct: 0.25 nM His-His-USP7 (aa208-560, |C315A|) was incubated with compound; His-His (N)
# Experiment: Inhibition of USP7 by Fluorescence Intensity (FLINT) readings, Ubiquitin-Rhodamine-110 substrate
# Type: biochemical
# Details: 0.25 nM His-His-USP7 (aa208-560), 60 minutes at 30° C. preincubation; Ki determined from IC50 according to Cer et al.
# Protocol: USP7 activity was measured using Rhodamine-110 c-terminal labelled Ubiquitin as a substrate (UbiQ Bio), Incubation with USP7 results in the release of Rhodamine-110 leading to an increase in fluorescence which can be used in the continuous measurement of USP7 activity.
# The USP7 reactions were performed in a 50 μL volume, in 384 well black solid low binding plates (Corning #3575). The reaction buffer consisted of 100 mM Bicine pH 8.0, 0.01% TritonX 100, 1 mM TCEP, and 10% DMSO.
# 0.25 nM His-His-USP7 (aa208-560, |C315A|) was incubated with compound (final concentration 10% DMSO) for 60 minutes at 30° C. The reaction was then initiated by the addition of 50) nM Ubiquitin-Rhodamine-110 substrate or 4 μM Ubiquitin-Rhodamine-110 substrate and the plate read every 3 minutes for 21 minutes to measure the release of Rhodamine-110. Fluorescence Intensity (FLINT) readings were measured using a Biomek Neo plate reader (Ex.485 nm, Em.535 nm).
# The inhibition of increasing doses of compound was expressed as a percentage reduction in kinetic rate compared to the kinetic rates established between ‘DMSO only’ and ‘total inhibition’ controls (no USP7). The inhibitory concentrations that gave a 50% reduction in kinetic rate (IC50) were determined, from 11-point dose response curves, in XL-Fit using a 4-Parameter Logistic Model 205 (Sigmoidal Dose-Response Model). The K, values were determined from the IC50 values according to Cer et al. Nucleic Acids Res. 2009, July 1; 37 (WebServer issue): W441-W445.
# T1 sequence (Q93009 208-560 C315A): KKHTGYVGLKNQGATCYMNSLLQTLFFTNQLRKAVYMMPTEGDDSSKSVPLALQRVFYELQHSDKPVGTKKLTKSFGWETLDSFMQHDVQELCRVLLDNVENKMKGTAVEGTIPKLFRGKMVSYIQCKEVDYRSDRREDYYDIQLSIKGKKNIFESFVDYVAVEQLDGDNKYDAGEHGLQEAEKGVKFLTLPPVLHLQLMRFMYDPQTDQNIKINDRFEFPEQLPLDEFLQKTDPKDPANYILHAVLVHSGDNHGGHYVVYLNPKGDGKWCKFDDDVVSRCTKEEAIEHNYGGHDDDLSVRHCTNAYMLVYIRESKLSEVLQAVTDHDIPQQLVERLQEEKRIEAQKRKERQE
row,Compound,Ki [nM]
1,"Nc1c(Oc2ccc(F)cc2)ncn(CC2(O)CCN(C(=O)[C@@H]3CCN(C(=O)c4ccc5nc[nH]c(=O)c5c4)C[C@H]3c3ccccc3)CC2)c1=O [Example 57, 6-[(3R,4R)-4-(4-t[5-amino-4-(4-fluorophenoxy)-6-oxopyrimidin-[(6N)-yl]methyl}-4-hydroxypiperidine-1-carbonyl)-3-phenylpiperidine-1-carbonyl]quinazolin-4(3n)-one]",5.1
2,"Nc1c(Oc2ccc(F)cc2)ncn(CC2(O)CCN(C(=O)[C@@H]3CCN(C(=O)c4ccc5c(c4)C(=O)C(=O)N5)C[C@H]3c3ccccc3)CC2)c1=O [Example 58, 5-[(3R,4R)-4-[4-[[5-amino-4-(4-fluorophenoxy)-6-oxo-pyrimidin-1-yl]methyl]-4-hydroxy-piperidine-1-carbonyl]-3-phenyl-piperidine-1-carbonyl]indoline-2,3-dione]",6.51
3,"COc1cc(Oc2ncn(CC3(O)CCN(C(=O)[C@@H]4CCNC[C@H]4c4ccccc4)CC3)c(=O)c2N)ccc1F [Example 17, 5-amino-6-(4-fluoro-3-methoxy-phenoxy)-3-[[4-hydroxy-1-(3R,4R)-3-phenylpiperidine-4-carbonyl]-4-piperidyl]methyl]pyrimidin-4-one hydrochloride]",116
4,"Nc1c(Oc2ccc(F)cc2)ncn(CC2(O)CCN(C(=O)[C@@H]3CCN(C(=O)NCc4ccccc4)C[C@H]3c3ccccc3)CC2)c1=O [Example 79, (3R,4R)-4-[4-[[5-amino-4-(4-fluorophenoxy)-6-oxo-pyrimidin-1-yl]methyl]-4-hydroxy-piperidine-1-carbonyl]-N-benzyl-3-phenyl-piperidine-1-carboxamide]",121
5,"CC(C)(C)OC(=O)N1CC[C@@H](C(=O)N2CCC(O)(Cn3cnc(Oc4ccc(Cl)cc4)c(N)c3=O)CC2)[C@H](c2ccccc2)C1 [Example 1, tert-butyl (3R,4R)-4-[4-[[5-amino-4-(4-chlorophenoxy)-6-oxo-pyrimidin-1-yl]methyl]-4-hydroxy-piperidine-1-carbonyl]-3-phenyl-piperidine-1-carboxylate]",103
6,COc1cc(Cl)cc(Oc2ncn(CC3(O)CCN(C(=O)[C@@H]4CCNC[C@H]4c4ccccc4)CC3)c(=O)c2N)c1 [Example 15],286
7,"Nc1c(Oc2ccc(Cl)cc2)ncn(CC2(O)CCN(C(=O)[C@@H]3CCNC[C@H]3c3ccccc3)CC2)c1=O [Example 14, 5-amino-6-(4-chlorophenoxy)-3-[[4-hydroxy-1-[(3R,4R)-3-phenylpiperidine-4-carbonyl]-4-piperidyl]methyl]pyrimidin-4-one hydrochloride]",115
8,"CC(C)(C)OC(=O)N1CC[C@@H](C(=O)N2CCC(O)(Cn3cnc(Oc4ccc(Cl)c(F)c4)c(N)c3=O)CC2)[C@H](c2ccccc2)C1 [Example 3, tert-butyl (3R,4R)-4-[4-[[5-amino-4-(4-chloro-3-fluoro-phenoxy)-6-oxo-pyrimidin-1-yl]methyl]-4-hydroxy-piperidine-1-carbonyl]-3-phenyl-piperidine-1-carboxylate]",125
9,CC(C)(C)OC(=O)N1CC[C@@H](C(=O)N2CC[C@](O)(Cn3cnc(Oc4ccc(F)cc4)c(N)c3=O)C(F)(F)C2)[C@H](c2ccccc2)C1 [Example 10],104
10,Nc1c(Oc2ccc(Cl)c(F)c2)ncn(CC2(O)CCN(C(=O)[C@@H]3CCNC[C@H]3c3ccccc3)CC2)c1=O [Example 16],232
11,"CC(C)(C)OC(=O)N1CC[C@@H](C(=O)N2CCC(O)(Cn3cnc(Oc4ccc(F)cc4)c(N)c3=O)CC2)[C@H](c2ccccc2)C1 [Example 8, tert-butyl (3R,4R)-4-[4-[[5-amino-4-(4-fluorophenoxy)-6-oxo-pyrimidin-1-yl]methyl]-4-hydroxy-piperidine-1-carbonyl]-3-phenyl-piperidine-1-carboxylate]",131
12,"Nc1c(Oc2cccc(C(F)(F)F)c2)ncn(CC2(O)CCN(C(=O)[C@@H]3CCNC[C@H]3c3ccccc3)CC2)c1=O [Example 18, 5-amino-3-[[4-hydroxy-1-[(3R,4R)-3-phenylpiperidine-4-carbonyl]-4-piperidyl]methyl]-6-[3-(trifluoromethyl)phenoxy]pyrimidin-4-one hydrochloride]",329

# The next lines start with the values.
row,Ki [nM],Compound
1,345,Nc1c(Oc2ccc(F)cc2)ncn(CC2(O)CCN(C(=O)[C@@H]3CCN(C(=O)NCC(F)(F)F)C[C@H]3c3ccccc3)CC2)c1=O [Example 90]
2,203,"CC(C)C1(N2CC[C@@H](C(=O)N3CCC(O)(Cn4cnc(Oc5ccc(F)cc5)c(N)c4=O)CC3)[C@H](c3ccccc3)C2)COC1 [Example 112, 5-amino-6-(4-fluorophenoxy)-3-[[4-hydroxy-1-[(3R,4R)-1-(3-isopropyloxetan-3-yl)-3-phenyl-piperidine-4-carbonyl]-4-piperidyl]methyl]pyrimidin-4-one]"
3,30.6,"CC1(N2CC[C@@H](C(=O)N3CCC(O)(Cn4cnc(Oc5ccccc5)c(N)c4=O)CC3)[C@H](c3ccccc3)C2)COC1 [Example 113, 5-amino-3-[[4-hydroxy-1-[(3R,4R)-1-(3-methyloxetan-3-yl)-3-phenyl-piperidine-4-carbonyl]-4-piperidyl]methyl]-6-phenoxy-pyrimidin-4-one]"
4,187,"Nc1c(Oc2ccc(F)cc2)ncn(CC2(O)CCN(C(=O)[C@@H]3CCN(C(=O)Nc4nc(C(F)(F)F)cs4)C[C@H]3c3ccccc3)CC2)c1=O [Example 88, (3R,4R)-4-[4-[[5-amino-4-(4-fluorophenoxy)-6-oxo-pyrimidin-1-yl]methyl]-4-hydroxy-piperidine-1-carbonyl]-3-phenyl-N-[4-(trifluoromethyl)thiazol-2-yl]piperidine-1-carboxamide]"
5,418,Nc1c(Oc2ccccc2)ncn(CC2(O)CCN(C(=O)[C@@H]3CCN(C4(c5ccc(F)cc5)COC4)C[C@H]3c3ccccc3)CC2)c1=O [Example 115]
6,182,"Nc1c(Oc2ccc(F)cc2)ncn(CC2(O)CCN(C(=O)[C@@H]3CCN(C4(c5ccc(F)cc5)COC4)C[C@H]3c3ccccc3)CC2)c1=O [Example 110, 5-amino-6-(4-fluorophenoxy)-3-[[1-[(3R,4R)-1-[3-(4-fluorophenyl)oxetan-3-yl]-3-phenyl-piperidine-4carbonyl]-4-hydroxy-4-piperidyl]methyl]pyrimidin-4-one]"
7,214,"Nc1c(Oc2cccnc2)ncn(CC2(O)CCN(C(=O)[C@@H]3CCNC[C@H]3c3ccccc3)CC2)c1=O [Example 151, 5-amino-3-[[4-hydroxy-1-[(3R,4R)-3-phenylpiperidine-4-carbonyl]-4-piperidyl]methyl]-6-(3-pyridyloxy)pyrimidin-4-one, hydrochloride]"
8,16,COc1ccc(NC(=O)N2CC[C@@H](C(=O)N3CCC(O)(Cn4cnc(Oc5ccc(F)cc5)c(N)c4=O)CC3)[C@H](c3ccccc3)C2)c(OC)c1 [Example 82]
9,21.9,"Cc1nc(-c2cccs2)sc1C(=O)N1CC[C@@H](C(=O)N2CCC(O)(Cn3cnc(Oc4ccc(F)cc4)c(N)c3=O)CC2)[C@H](c2ccccc2)C1 [Example 150, 5-amino-6-(4-fluorophenoxy)-3-[[4-hydroxy-1-[(3R,4R)-1-[4-methyl-2-(2-thienyl)thiazole-5-carbonyl]-3-phenyl-piperidine-4-carbonyl]-4-piperidyl]methyl]pyrimidin-4-one]"
